How the values were obtained:
[1] = biological target: S6K1 (Homo sapiens, UniProt P23443); assay: S6K1 protein level in HEK293 cells, immunoblot; type: cell-based; design: reduced endogenous SGK isoform or S6K1 expression when administered to HEK293 cells for 48 h; endogenous in cells; host or cells: HEK293
Experimental: A medium length linker composed of three PEG units was used in the first instance (Figure 1B and C). […] After 48 h of PROTAC treatment, cell lysates were analyzed by immunoblot analysis, and protein expression under each condition was quantified relative to the DMSO-only control. […] DAT1 reduced SGK3 expression by 60% at 1 μM and 75% at 10 μM after 48 h (Figure 1D). […] As expected, inhibition of CUL2 neddylation by means of the inhibitor MLN4924 (3 μM) or proteasome inhibition (MG132, 50 μM) blocked DAT1-induced degradation of SGK3 (Figure S1C).
All cell treatments were carried out as described in figure legends, to a final DMSO concentration of 0.1% (v/v). Lysates were quantified. Immunoblotting was performed using standard procedures, described in brief below. Lysate concentration was quantified by Bradford Assay, and 10 μg of lysate was loaded in the LDS sample buffer for SDS-PAGE electrophoresis on Novex 4–12% Bis–Tris gels. Proteins were electrophoretically transferred onto nitrocellulose membranes (Amersham Protran 0.45 μm NC; GE Healthcare) at 80 V for 80 min on ice in transfer buffer. Transferred membranes were blocked with 5% (w/v) nonfat dry milk dissolved in TBS-T [20 mM Tris/HCl, pH 7.5, 150 mM NaCl, and 0.1% (v/v) Tween 20] at RT for 30 min, before incubation with the primary antibody overnight at 4 °C. The signal was produced with near-infrared secondary antibodies and detected using a Licor Biosciences Odyssey System, and the signal was quantified in Image Studio Lite.

[2] = biological target: T1, CDK18 (Homo sapiens, UniProt Q07002); assay: TMT global proteomic analysis of HEK293 cells; type: cell-based; settings: HEK293, 0.3 μM, 8 h
T1 construct: global proteomic analysis of HEK293 cells treated in the presence or absence of 0.3 μM SGK3-PROTAC1; endogenous in cells; host or cells: HEK293
Experimental: (§1) To establish the specificity of SGK3-PROTAC1 employing an unbiased approach, we performed quantitative Tandem–Mass–Tag (TMT)-labeled global proteomic analysis of HEK293 cells treated in the presence or absence of 0.3 μM SGK3-PROTAC1 compared to either 0.3 μM cisSGK3-PROTAC1 or DMSO for 8 h. Experiments were undertaken in triplicate, and analysis in Proteome Discoverer v2.2 using the Mascot search engine allowed relative quantification of 8766 proteins.
(§2) Figure 4 TMT proteomic analysis of HEK293 cells treated with SGK3-PROTAC1. (A) Cells were treated with DMSO (control), SGK3-PROTAC1 (0.3 μM), or cisSGK3-PROTAC1 (0.3 μM) for 8 h and lysed. Lysates were subjected to immunoblot analysis with the indicated antibodies. (B) Lysates were examined by quantitative proteomics. […]
(§3) Cell culture and proteomic sample preparation
(§4) Cells pellets were lysed with 2 ml of lysis buffer (8 M Urea, 50 mM Ammonium bicarbonate containing protease inhibitor and phosphatase inhibitor). The sample were left on ice for 15 min and were then sonicated for 5 min in ice-cold water bath under high intensity with 30 sec on and off. After sonication, benzonase® endonuclease (Merck Millipore) with the volume ratio of 1: 100 were added into the lysate to degrade DNA and RNA. The lysate were then centrifuged at 12,000 rpm for 15 min at 4 °C, and supernatants were transferred into new eppendorf tubes. The protein concentration were measured with BCA assay (Pierce™ BCA Protein Assay Kit, Thermo). The lysate from each sample was reduced with 5 mM DTT at 45 °C for 30 min. Lysates were briefly centrifuged and were cool down to room temperature before alkylation in the dark with 10 mM iodoacetamide at room temperature. The alkylation was then quenched by the addition of 5 mM DTT. Samples were first digested by Lys-C with the weight ratio of 1:200 (w/w) for 4 h at 30 °c. Then, sample were diluted with 50 mM ammonium bicarbonate to 1.5 M Urea concentration. Samples were then digested with trypsin (Pierce trypsin, Thermo) at an enzyme to protein ratio of 1:50 (w/w) at room temperature with gentle shaking for overnight.
(§5) The digest was stopped by the addition of 1% TFA (v/v), centrifuged at 10,000 g for 10 min at room temperature.
(§6) The supernatant were desalted on 200 mg SepPak tC18 cartridge (Waters). Desalted peptides were dried by vacuum centrifugation using Speedvac (Thermo).
(§7) TMT labelling and Basic C18 reverse phase (bRP) chromatography fractionation Each sample (200 μg of peptides each) was re-suspended in 100 μL of 100 mM TEAB buffer. The TMT labelling reagents were equilibrated to room temperature and 41 μL anhydrous acetonitrile was added to each reagent channel and softly vortexed for 10 min. Peptides were transferred to the corresponding TMT channels and incubated for 1 h at room temperature. The reaction was quenched with 8 μL of 5% hydroxylamine. To ensure complete labelling, 1 µg of labelled samples from each channel were analyzed by LC-MS/MS prior to mix. After evaluation, the complete TMT labelled 9 samples were then combined, acidified and dried. Sep-Pak desalting was then performed and the elution was dried to completeness.
Ultimate 3000 high-pressure liquid chromatography (HPLC) system (Dionex) were used for basic C18 reverse phase chromatography fractionation operating at 569 µL/min with two buffers: buffer A (10 mM ammonium formate, pH 10) and buffer B (80% ACN, 10 mM ammonium formate, pH 10). […]

[3] = system: S100A7; assay: TMT global proteomic analysis of HEK293 cells; type: cell-based, Homo sapiens; settings: HEK293, 0.3 μM, 8 h
Experimental: as §1, §2, §3, §4, §5, §6, §7
(§8) Ultimate 3000 high-pressure liquid chromatography (HPLC) system (Dionex) were used for basic C18 reverse phase chromatography fractionation operating at 569 µL/min with two buffers: buffer A (10 mM ammonium formate, pH 10) and buffer B (80% ACN, 10 mM ammonium formate, pH 10). The desalted mixture of TMT-labelled peptides were resuspended in 200 µL of buffer A (10 mM ammonium formate, pH10) and separated on a C18 reverse phase column (4.6 × 250 mm, 3.5 μm, Waters) with a gradient from 3% B to 12.5 % B in 10 min, […]
(§9) min, 100% for 5 min, ramping to 3% B in 2.5 min and then 3% for 10 min. A total of 90 fractions (1 min per fraction) were collected before further concatenation into 30 final fractions. Each fraction was then dried and desalted over a C18 StageTip prior to analysis by mass spectrometry. […]

[4] = system: MOXD1; assay: TMT global proteomic analysis of HEK293 cells; type: cell-based, Homo sapiens; settings: HEK293, 0.3 μM, 8 h
Experimental: as §1, §2, §3, §4, §5, §6, §7, §8, §9

[5] = system: SDC2; assay: TMT global proteomic analysis of HEK293 cells; type: cell-based, Homo sapiens; settings: HEK293, 0.3 μM, 8 h
Experimental: as §1, §2, §3, §4, §5, §6, §7, §8, §9

S6K1, sequence (P23443 whole entry, canonical isoform): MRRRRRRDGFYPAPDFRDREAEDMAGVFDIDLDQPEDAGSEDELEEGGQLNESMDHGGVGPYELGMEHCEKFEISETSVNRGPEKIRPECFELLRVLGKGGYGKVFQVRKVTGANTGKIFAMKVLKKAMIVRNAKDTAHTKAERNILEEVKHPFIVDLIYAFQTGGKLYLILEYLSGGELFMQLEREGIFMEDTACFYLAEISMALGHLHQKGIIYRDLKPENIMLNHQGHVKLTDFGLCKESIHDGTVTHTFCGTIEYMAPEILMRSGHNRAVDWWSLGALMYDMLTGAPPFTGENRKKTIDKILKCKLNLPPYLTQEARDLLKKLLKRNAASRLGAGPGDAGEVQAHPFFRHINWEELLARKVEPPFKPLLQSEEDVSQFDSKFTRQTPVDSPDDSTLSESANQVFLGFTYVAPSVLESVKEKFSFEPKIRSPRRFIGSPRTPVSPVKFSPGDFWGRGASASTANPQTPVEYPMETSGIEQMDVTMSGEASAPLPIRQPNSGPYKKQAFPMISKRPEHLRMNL
T1 sequence (Q07002 whole entry): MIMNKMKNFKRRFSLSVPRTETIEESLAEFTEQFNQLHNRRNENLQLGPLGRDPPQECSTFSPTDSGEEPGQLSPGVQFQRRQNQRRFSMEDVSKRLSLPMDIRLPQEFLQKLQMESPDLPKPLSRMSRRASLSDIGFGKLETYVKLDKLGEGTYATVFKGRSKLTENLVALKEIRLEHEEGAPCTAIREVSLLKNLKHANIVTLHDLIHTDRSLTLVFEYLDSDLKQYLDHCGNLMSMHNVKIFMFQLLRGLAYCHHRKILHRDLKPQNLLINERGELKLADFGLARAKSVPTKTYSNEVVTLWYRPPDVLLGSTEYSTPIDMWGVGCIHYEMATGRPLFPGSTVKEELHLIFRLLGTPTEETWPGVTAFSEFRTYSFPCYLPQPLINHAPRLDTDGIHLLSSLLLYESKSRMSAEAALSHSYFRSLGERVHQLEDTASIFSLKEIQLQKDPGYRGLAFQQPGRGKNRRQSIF

SMILES	S6K1 level ([1]; HEK293, 48 h, up to 10 μM)	Abundances (Grouped) [2]	Ratio: (SGK3-PROTAC1) / (cSGK3-PROTAC1) [2]	Ratio: (compound) / (DMSO) [2]	Abundances (Grouped) [3]	Ratio: (SGK3-PROTAC1) / (cSGK3-PROTAC1) [3]	Ratio: (compound) / (DMSO) [3]	Abundances (Grouped) [4]	Ratio: (SGK3-PROTAC1) / (cSGK3-PROTAC1) [4]	Ratio: (compound) / (DMSO) [4]	Abundances (Grouped) [5]	Ratio: (SGK3-PROTAC1) / (cSGK3-PROTAC1) [5]	Ratio: (compound) / (DMSO) [5]	S6K1 degradation ([1]; HEK293, 8 h, doses of up to 1 μM)	S6K1 level ([1]; HEK293, 48 h, 0.1 μM)	S6K1 degradation ([1]; HEK293, 48 h, 1–10 μM)
Cc1ccc(F)c(S(=O)(=O)Nc2ccc(-c3nc(OC[C@H]4CN(CCOCCOCCOCC(=O)N[C@H](C(=O)N5C[C@H](O)C[C@H]5C(=O)NCc5ccc(-c6scnc6C)cc5)C(C)(C)C)CCO4)c4cn[nH]c4n3)cc2)c1 [DAT1]	not significantly impacted															
Cc1ccc(F)c(S(=O)(=O)Nc2ccc(-c3nc(OC[C@H]4CN(CCCCCCOCCOCCOCC(=O)N[C@H](C(=O)N5C[C@H](O)C[C@H]5C(=O)NCc5ccc(-c6scnc6C)cc5)C(C)(C)C)CCO4)c4cn[nH]c4n3)cc2)c1 [SGK3-PROTAC1]		66.1	0.727	0.652	90.9	1.014	0.645	90.2	1.082	0.713	106.6	2.505	0.665	no degradation	without effecting	moderate degradation
Cc1ccc(F)c(S(=O)(=O)Nc2ccc(-c3nc(OC[C@H]4CN(CCCCCCOCCOCCOCC(=O)N[C@H](C(=O)N5C[C@@H](O)C[C@H]5C(=O)NCc5ccc(-c6scnc6C)cc5)C(C)(C)C)CCO4)c4cn[nH]c4n3)cc2)c1 [cisSGK3-PROTAC1]		126.5		1.144	90.1		1.695	83.4		0.656	37.8		0.266			

Source: paper PMC6757289, “Design and Characterization of SGK3-PROTAC1, an Isoform Specific SGK3 Kinase PROTAC Degrader” (ACS Chemical Biology, 2019)
